Tested on: MV-4-11 cells
Test: Gene expression microarray analysis (Affymetrix PrimeView) and GSEA
Type: cell-based, human
Parameters: RFU PODN (11730768_x_at) / Fold change /veh PODN (11730768_x_at) / RFU LINC00158 (11744669_a_at) / Fold change /veh LINC00158 (11744669_a_at) / RFU DUSP10 (11751237_a_at) / Fold change /veh DUSP10 (11751237_a_at) / RFU ID3 (11757404_x_at) / Fold change /veh ID3 (11757404_x_at) / RFU PLEKHG5 (11737974_s_at) / Fold change /veh PLEKHG5 (11737974_s_at) / RFU LRRC4B (11730491_at) / Fold change /veh LRRC4B (11730491_at) / RFU GIMAP4 (11747438_a_at) / Fold change /veh GIMAP4 (11747438_a_at) / RFU KRT8 (11758183_x_at) / Fold change /veh KRT8 (11758183_x_at) / RFU CNN1 (11734310_a_at) / Fold change /veh CNN1 (11734310_a_at) / RFU VPS37D (11726825_at) / Fold change /veh VPS37D (11726825_at) / RFU C10orf10 (11716522_x_at) / Fold change /veh C10orf10 (11716522_x_at) / RFU KIR2DL2 /// KIR2DL4 /// KIR2DL5A /// KIR2DL5B /// KIR2DS1 /// KIR2DS2 /// KIR2DS3 /// KIR2DS4 /// KIR3DL3 /// KIR3DL3 /// KIR3DS1 (11738374_at) / Fold change /veh KIR2DL2 /// KIR2DL4 /// KIR2DL5A /// KIR2DL5B /// KIR2DS1 /// KIR2DS2 /// KIR2DS3 /// KIR2DS4 /// KIR3DL3 /// KIR3DL3 /// KIR3DS1 (11738374_at) / RFU C1QL1 (11718748_at) / Fold change /veh C1QL1 (11718748_at) / RFU TMPRSS4 (11747572_a_at) / Fold change /veh TMPRSS4 (11747572_a_at) / RFU HAMP (11756126_x_at) / Fold change /veh HAMP (11756126_x_at) / RFU RNFT2 (11725882_a_at) / Fold change /veh RNFT2 (11725882_a_at) / RFU NR4A2 (11747474_a_at) / Fold change /veh NR4A2 (11747474_a_at) / RFU ABCC12 (11746883_a_at) / Fold change /veh ABCC12 (11746883_a_at) / RFU TMEM136 (11760407_x_at) / Fold change /veh TMEM136 (11760407_x_at) / RFU CLDN22 /// WWC2 (11732394_at) / Fold change /veh CLDN22 /// WWC2 (11732394_at) / RFU HLA-DPB1 (11760878_x_at) / Fold change /veh HLA-DPB1 (11760878_x_at) / RFU SPINT1 (11716480_a_at) / Fold change /veh SPINT1 (11716480_a_at) / RFU GAP43 (11754022_s_at) / Fold change /veh GAP43 (11754022_s_at) / RFU A4GNT (11735810_at) / Fold change /veh A4GNT (11735810_at) / RFU PRB3 (11715151_x_at) / Fold change /veh PRB3 (11715151_x_at) / RFU TUBB4B (11761932_at) / Fold change /veh TUBB4B (11761932_at) / RFU CAPN14 (11732068_a_at) / Fold change /veh CAPN14 (11732068_a_at) / RFU TMCC2 (11721928_a_at) / Fold change /veh TMCC2 (11721928_a_at) / RFU IRGQ (11745062_a_at) / Fold change /veh IRGQ (11745062_a_at) / RFU FAM174B (11720279_a_at) / Fold change /veh FAM174B (11720279_a_at) / RFU TMPRSS4 (11748680_a_at) / Fold change /veh TMPRSS4 (11748680_a_at) / RFU FAM212B (11763350_a_at) / Fold change /veh FAM212B (11763350_a_at) / RFU PLEKHG5 (11743358_a_at) / Fold change /veh PLEKHG5 (11743358_a_at) / RFU ZSCAN30 (11745921_a_at) / Fold change /veh ZSCAN30 (11745921_a_at) / RFU CMKLR1 (11741424_a_at) / Fold change /veh CMKLR1 (11741424_a_at) / RFU LOC101060620 /// MAPK8IP1 (11723275_at) / Fold change /veh LOC101060620 /// MAPK8IP1 (11723275_at) / RFU SPTSSB (11747773_x_at) / Fold change /veh SPTSSB (11747773_x_at) / RFU PRSS12 (11739890_at) / Fold change /veh PRSS12 (11739890_at) / RFU BIN1 (11741810_x_at) / Fold change /veh BIN1 (11741810_x_at) / RFU WNT11 (11732464_a_at) / Fold change /veh WNT11 (11732464_a_at) / RFU C10orf10 (11716521_a_at) / Fold change /veh C10orf10 (11716521_a_at) / RFU C5orf56 (11738089_at) / Fold change /veh C5orf56 (11738089_at) / RFU CYB561 (11721691_x_at) / Fold change /veh CYB561 (11721691_x_at) / RFU ANKRD19P (11752326_a_at) / Fold change /veh ANKRD19P (11752326_a_at) / RFU OR2T12 /// OR2T33 /// OR2T8 (11738714_s_at) / Fold change /veh OR2T12 /// OR2T33 /// OR2T8 (11738714_s_at) / RFU VCAN (11748164_a_at) / Fold change /veh VCAN (11748164_a_at) / RFU JSRP1 (11732532_at) / Fold change /veh JSRP1 (11732532_at) / RFU KRTAP10-11 (11738290_x_at) / Fold change /veh KRTAP10-11 (11738290_x_at) / RFU MYO3A (11730013_a_at) / Fold change /veh MYO3A (11730013_a_at) / RFU EBF3 (11725865_a_at) / Fold change /veh EBF3 (11725865_a_at) / RFU CAMK2N1 (11719241_x_at) / Fold change /veh CAMK2N1 (11719241_x_at) / RFU C5orf56 (11738088_a_at) / Fold change /veh C5orf56 (11738088_a_at) / RFU OLFML3 (11715873_a_at) / Fold change /veh OLFML3 (11715873_a_at) / RFU LOC100653217 /// NTM (11731650_a_at) / Fold change /veh LOC100653217 /// NTM (11731650_a_at) / RFU MAPK11 (11762145_a_at) / Fold change /veh MAPK11 (11762145_a_at) / RFU FIZ1 (11724087_x_at) / Fold change /veh FIZ1 (11724087_x_at) / RFU OASL (11726364_x_at) / Fold change /veh OASL (11726364_x_at) / RFU SOX15 (11748057_x_at) / Fold change /veh SOX15 (11748057_x_at) / RFU CD79A (11719716_a_at) / Fold change /veh CD79A (11719716_a_at) / RFU HIST1H1D (11736915_at) / Fold change /veh HIST1H1D (11736915_at) / RFU CASKIN2 (11723855_a_at) / Fold change /veh CASKIN2 (11723855_a_at) / RFU LOC730098 (11760151_x_at) / Fold change /veh LOC730098 (11760151_x_at) / RFU OR4N2 (11742367_at) / Fold change /veh OR4N2 (11742367_at) / RFU PRRT2 (11749266_a_at) / Fold change /veh PRRT2 (11749266_a_at) / RFU SNX32 (11753110_a_at) / Fold change /veh SNX32 (11753110_a_at) / RFU CDHR5 (11726645_a_at) / Fold change /veh CDHR5 (11726645_a_at) / RFU RCAN1 (11760418_a_at) / Fold change /veh RCAN1 (11760418_a_at) / RFU FAM167A (11723789_a_at) / Fold change /veh FAM167A (11723789_a_at) / RFU FAM26E (11764081_at) / Fold change /veh FAM26E (11764081_at) / RFU ISYNA1 (11749810_s_at) / Fold change /veh ISYNA1 (11749810_s_at) / RFU ACY1 (11761880_at) / Fold change /veh ACY1 (11761880_at) / RFU 11764098_at / Fold change /veh 11764098_at / RFU SAMD14 (11745864_x_at) / Fold change /veh SAMD14 (11745864_x_at) / RFU NPB (11741838_a_at) / Fold change /veh NPB (11741838_a_at) / RFU TMPRSS6 (11731388_a_at) / Fold change /veh TMPRSS6 (11731388_a_at) / RFU KRTAP10-2 (11738614_at) / Fold change /veh KRTAP10-2 (11738614_at) / RFU ARHGAP8 /// PRR5-ARHGAP8 (11727945_x_at) / Fold change /veh ARHGAP8 /// PRR5-ARHGAP8 (11727945_x_at) / RFU KRTAP5-7 /// NADSYN1 (11734609_at) / Fold change /veh KRTAP5-7 /// NADSYN1 (11734609_at) / RFU RASL12 (11751679_a_at) / Fold change /veh RASL12 (11751679_a_at) / RFU CDKN2B (11736163_a_at) / Fold change /veh CDKN2B (11736163_a_at) / RFU PRF1 (11729649_at) / Fold change /veh PRF1 (11729649_at) / RFU, ZNF638 /// ZNF638-IT1 / Fold change vs veh, ZNF638 /// ZNF638-IT1 / RFU, PANK3 / Fold change vs veh, PANK3 / RFU, SH3YL1 / Fold change vs veh, SH3YL1 / RFU, ZEB2 / Fold change vs veh, ZEB2 / RFU, NRIP1 / Fold change vs veh, NRIP1 / RFU, PTTG1IP / Fold change vs veh, PTTG1IP / RFU, CAPN2 / Fold change vs veh, CAPN2 / RFU, MED14 / Fold change vs veh, MED14 / RFU, SNORA58 / Fold change vs veh, SNORA58 / RFU, C1orf63 / Fold change vs veh, C1orf63 / RFU, LRRFIP1 / Fold change vs veh, LRRFIP1 / RFU, NDUFAF7 / Fold change vs veh, NDUFAF7 / RFU, SLC12A2 / Fold change vs veh, SLC12A2 / RFU, IBTK / Fold change vs veh, IBTK / RFU, ESF1 / Fold change vs veh, ESF1 / Fold change vs veh, TMEM50B / RFU, TAOK1 / Fold change vs veh, TAOK1 / RFU, ACBD3 / Fold change vs veh, ACBD3 / RFU, TMA16 / Fold change vs veh, TMA16 / RFU, RWDD3 / Fold change vs veh, RWDD3 / RFU, BCAT1 / Fold change vs veh, BCAT1 / RFU, EDEM3 / Fold change vs veh, EDEM3 / RFU, TMEM33 / Fold change vs veh, TMEM33 / RFU, WDR75 / Fold change vs veh, WDR75 / RFU, AHCTF1 / Fold change vs veh, AHCTF1 / RFU, TFRC / Fold change vs veh, TFRC / RFU, ZDHHC17 / Fold change vs veh, ZDHHC17 / RFU, NOM1 / Fold change vs veh, NOM1 / RFU, ARL8B / Fold change vs veh, ARL8B / RFU, ZBTB11 / Fold change vs veh, ZBTB11 / RFU, TAMM41 / Fold change vs veh, TAMM41 / RFU, KIAA1704 /// LOC100996395 / Fold change vs veh, KIAA1704 /// LOC100996395 / RFU, ING1 / Fold change vs veh, ING1 / RFU, TRMT61B / Fold change vs veh, TRMT61B / RFU, FUBP3 / Fold change vs veh, FUBP3 / RFU, TP53 / Fold change vs veh, TP53 / RFU, TNKS2 / Fold change vs veh, TNKS2 / RFU, ZFP14 / Fold change vs veh, ZFP14 / RFU, ACTR2 / Fold change vs veh, ACTR2 / RFU, PPP3R1 / Fold change vs veh, PPP3R1 / RFU, PIK3R1 / Fold change vs veh, PIK3R1 / RFU, HNRNPA1 / Fold change vs veh, HNRNPA1 / RFU, RNF170 / Fold change vs veh, RNF170 / RFU, ZNF28 / Fold change vs veh, ZNF28 / RFU, RNGTT / Fold change vs veh, RNGTT / RFU, OGT / Fold change vs veh, OGT / RFU, BRD1 / Fold change vs veh, BRD1 / RFU, MARS / Fold change vs veh, MARS / RFU, ZNF655 / Fold change vs veh, ZNF655 / RFU, FAHD1 / Fold change vs veh, FAHD1 / RFU, BDP1 / Fold change vs veh, BDP1 / RFU, LRRCC1 / Fold change vs veh, LRRCC1 / RFU, ARID1A / Fold change vs veh, ARID1A / RFU, ZNF146 / Fold change vs veh, ZNF146 / RFU, ZNF330 / Fold change vs veh, ZNF330 / RFU, GPN3 / Fold change vs veh, GPN3 / RFU, C9orf123 / Fold change vs veh, C9orf123 / RFU, N4BP2L2 / Fold change vs veh, N4BP2L2 / RFU, ARFIP1 / Fold change vs veh, ARFIP1 / RFU, FAM179B / Fold change vs veh, FAM179B / RFU, BCL10 / Fold change vs veh, BCL10 / RFU, UHRF1BP1L / Fold change vs veh, UHRF1BP1L / RFU, BET1 / Fold change vs veh, BET1 / RFU, CNOT2 / Fold change vs veh, CNOT2 / RFU, ZNF268 / Fold change vs veh, ZNF268 / Fold change vs veh, ZNF507 / RFU, DGCR2 / Fold change vs veh, DGCR2 / RFU, WDSUB1 / Fold change vs veh, WDSUB1 / Fold change vs veh, HSP90B1 /// MIR3652 / RFU, ADSS / Fold change vs veh, ADSS / RFU, GK / Fold change vs veh, GK / RFU, ZNF148 / Fold change vs veh, ZNF148 / RFU, TAF9 / Fold change vs veh, TAF9 / RFU, SLC1A5 / Fold change vs veh, SLC1A5 / RFU, SLMO2 / Fold change vs veh, SLMO2 / RFU, ABCC4 / Fold change vs veh, ABCC4 / RFU, LOC101060439 /// RAP1B / Fold change vs veh, LOC101060439 /// RAP1B / RFU, RFX7 / Fold change vs veh, RFX7 / RFU, GTPBP10 / Fold change vs veh, GTPBP10 / RFU, CNEP1R1 / Fold change vs veh, CNEP1R1 / RFU, BIVM-ERCC5 /// ERCC5 / Fold change vs veh, BIVM-ERCC5 /// ERCC5 / RFU, ILF3 / Fold change vs veh, ILF3 / RFU 11762660_at / Fold change /veh 11762660_at / RFU VCAN (11757783_s_at) / Fold change /veh VCAN (11757783_s_at) / RFU DDX43 (11728927_at) / Fold change /veh DDX43 (11728927_at) / RFU KRT8 (11758188_x_at) / Fold change /veh KRT8 (11758188_x_at) / RFU NKD1 (11759106_at) / Fold change /veh NKD1 (11759106_at) / RFU SRD5A1 (11742802_a_at) / Fold change /veh SRD5A1 (11742802_a_at) / RFU TPSAB1 /// TPSB2 (11721975_s_at) / Fold change /veh TPSAB1 /// TPSB2 (11721975_s_at) / RFU GSTM3 (11746129_a_at) / Fold change /veh GSTM3 (11746129_a_at) / RFU IL23R (11737362_x_at) / Fold change /veh IL23R (11737362_x_at) / RFU TMEM51 (11727254_a_at) / Fold change /veh TMEM51 (11727254_a_at) / RFU PIWIL2 (11732686_x_at) / Fold change /veh PIWIL2 (11732686_x_at) / RFU ORM1 (11744905_x_at) / Fold change /veh ORM1 (11744905_x_at) / RFU CCDC152 (11743942_at) / Fold change /veh CCDC152 (11743942_at) / RFU ECM1 (11717891_a_at) / Fold change /veh ECM1 (11717891_a_at) / RFU IL23R (11748794_a_at) / Fold change /veh IL23R (11748794_a_at) / RFU TNFAIP8L3 (11732012_x_at) / Fold change /veh TNFAIP8L3 (11732012_x_at) / RFU MBOAT4 (11741988_at) / Fold change /veh MBOAT4 (11741988_at) / RFU 11764193_at / Fold change /veh 11764193_at / RFU TMEM53 (11763286_at) / Fold change /veh TMEM53 (11763286_at) / RFU MAGEB2 (11727129_at) / Fold change /veh MAGEB2 (11727129_at) / RFU TMEM200A (11744735_a_at) / Fold change /veh TMEM200A (11744735_a_at) / RFU CCDC152 (11751479_a_at) / Fold change /veh CCDC152 (11751479_a_at) / RFU FAM211A (11726209_a_at) / Fold change /veh FAM211A (11726209_a_at) / RFU RGS16 (11746705_a_at) / Fold change /veh RGS16 (11746705_a_at) / RFU VCAN (11755009_s_at) / Fold change /veh VCAN (11755009_s_at) / RFU RHOB (11743442_s_at) / Fold change /veh RHOB (11743442_s_at) / RFU RGS16 (11720943_a_at) / Fold change /veh RGS16 (11720943_a_at) / RFU RGS16 (11720944_at) / Fold change /veh RGS16 (11720944_at) / RFU, VPS4B / Fold change vs veh, VPS4B / RFU, CREB1 / Fold change vs veh, CREB1 / RFU, DNAJC13 / Fold change vs veh, DNAJC13 / RFU, GNAQ / Fold change vs veh, GNAQ / RFU, CDK5R1 / Fold change vs veh, CDK5R1 / RFU, ZRANB3 / Fold change vs veh, ZRANB3 / RFU, CUL4A / Fold change vs veh, CUL4A / RFU, CCNY / Fold change vs veh, CCNY / RFU, UFL1 / Fold change vs veh, UFL1 / RFU, COG3 / Fold change vs veh, COG3 / RFU, DIAPH2 / Fold change vs veh, DIAPH2 / RFU, SKA2 / Fold change vs veh, SKA2 / RFU, AFF3 / Fold change vs veh, AFF3 / RFU, LMF1 / Fold change vs veh, LMF1 / RFU, IPO11 / Fold change vs veh, IPO11 / RFU, DFFB / Fold change vs veh, DFFB / RFU, FOXP1 / Fold change vs veh, FOXP1 / RFU, CARD8 / Fold change vs veh, CARD8 / RFU, STRN3 / Fold change vs veh, STRN3 / RFU, ADK / Fold change vs veh, ADK / RFU, RASSF2 / Fold change vs veh, RASSF2 / RFU, WIPF1 / Fold change vs veh, WIPF1 / RFU, LARP1B / Fold change vs veh, LARP1B / RFU, RASA1 / Fold change vs veh, RASA1 / RFU, RB1 / Fold change vs veh, RB1 / RFU, PPFIA1 / Fold change vs veh, PPFIA1 / RFU, MAT2A / Fold change vs veh, MAT2A / RFU, CCT5 / Fold change vs veh, CCT5 / RFU, WDR92 / Fold change vs veh, WDR92 / RFU, CUX1 / Fold change vs veh, CUX1 / RFU, TTC7A / Fold change vs veh, TTC7A / RFU, TMEM135 / Fold change vs veh, TMEM135 / RFU, DEPTOR / Fold change vs veh, DEPTOR / RFU, CPM / Fold change vs veh, CPM / RFU, DNAJB6 / Fold change vs veh, DNAJB6 / RFU, CACNA2D3 / Fold change vs veh, CACNA2D3 / RFU, DTX4 / Fold change vs veh, DTX4 / RFU, TFCP2 / Fold change vs veh, TFCP2 / RFU, GMCL1 /// GMCL1P1 / Fold change vs veh, GMCL1 /// GMCL1P1 / RFU, AEBP2 / Fold change vs veh, AEBP2 / RFU, SNHG1 /// SNORD22 /// SNORD25 /// SNORD26 /// SNORD27 /// SNORD28 /// SNORD29 /// SNORD31 / Fold change vs veh, SNHG1 /// SNORD22 /// SNORD25 /// SNORD26 /// SNORD27 /// SNORD28 /// SNORD29 /// SNORD31 / Fold change (Aza/veh), C12orf56 (ProbeSet 11735607_a_at) / Fold change (ACY-1035/veh), C12orf56 (ProbeSet 11735607_a_at) / Fold change (Aza/veh), FGFR1OP (ProbeSet 11751329_s_at) / Fold change (ACY-1035/veh), FGFR1OP (ProbeSet 11751329_s_at) / Fold change (Aza/veh), VPS36 (ProbeSet 11739960_a_at) / Fold change (ACY-1035/veh), VPS36 (ProbeSet 11739960_a_at) / RFU SYPL1 (11715823_x_at) / Fold change /veh SYPL1 (11715823_x_at) / RFU IGFBP7 (11715501_s_at) / Fold change /veh IGFBP7 (11715501_s_at) / RFU REEP3 (11722064_at) / Fold change /veh REEP3 (11722064_at) / RFU IGLL1 (11728026_x_at) / Fold change /veh IGLL1 (11728026_x_at): dose or concentration left out as unconfirmed
Conditions: ProbeSet 11722302_a_at; LIST B

## Nc1ncn([C@@H]2O[C@H](CO)[C@@H](O)[C@H]2O)c(=O)n1 [azacitidine]
  RFU, LRRFIP1: 130.71 RFU

— PMC5218480 (PLoS ONE, 2017)
